Test results from paper PMC4769951 (Bioorganic & medicinal chemistry, 2016).

What was measured:
[1] = in vivo, cited from earlier work
[2] = Plasma stability, rat plasma; assay type: in vitro ADME; settings: female, Sprague-Dawley, pooled plasma
[3] = Plasma stability, mouse plasma; assay type: in vitro ADME; settings: female, CD-1, mouse, pooled plasma
[4] = Plasma stability, human plasma; assay type: in vitro ADME; settings: female, pooled plasma
Caco-2 cells = settings: cited from earlier work
[5] = Aqueous stability in simulated gastric fluid; assay type: physicochemical; settings: 37 °C

Nc1ncnc2c1ncn2[C@@H]1O[C@H](CNS(=O)(=O)NC(=O)c2ccccc2O)[C@@H](O)[C@H]1F [Compound 2]
Oral exposure relative to 1 ([1]; po): 3 fold
Clearance relative to 1 [1]: 3 fold
remaining at 6 h, 200 µM [2]: 100%
remaining at 6 h, 200 µM [3]: 100%
remaining at 6 h, 200 µM [4]: 100%
Caco-2 permeability relative to 1 (Caco-2 cells): 3.5 fold
Efflux ratio (Caco-2 cells): 0.3
Papp AP-BL (Caco-2 cells): 4.2 ×10⁻⁶ cm/s
Papp BL-AP (Caco-2 cells): 1.3 ×10⁻⁶ cm/s

CC(=O)O[C@H]1[C@@H](F)[C@H](n2cnc3c(N)ncnc32)O[C@@H]1CNS(=O)(=O)NC(=O)c1ccccc1O.CCN(CC)CC [Compound 3, 9-[3-O-(Acetyl)-2,5-dideoxy-2-fluoro-5-{N-(N-2-hydroxybenzoyl)sulfamoyl}amino-β-D-ribofuranosyl]adenine Triethylammonium Salt]
% hydrolyzed to parent drug 2 ([5]; pH 7.4, 2 h): 8%

CCCCCCCCCCCC(=O)O[C@H]1[C@@H](F)[C@H](n2cnc3c(N)ncnc32)O[C@@H]1CNS(=O)(=O)NC(=O)c1ccccc1O.CCN(CC)CC [Compound 8, 9-[2,5-Dideoxy-3-O-(dodecanoyl)-2-fluoro-5-{N-(N-2-hydroxybenzoyl)sulfamoyl}amino-β-D-ribofuranosyl]adenine Triethylammonium Salt]
Chemical hydrolysis to release the parent drug 2 ([5]; pH 1.2, 2 h): not observed
